Measured values taken from ChEMBL document CHEMBL4732213, “Discovery of novel ceramide analogs with favorable pharmacokinetic properties and combination with AKT inhibitor against colon cancer” (Eur J Med Chem, 2021).
Activity calls are given as the source filed them. No cut-off for these calls is given here.

Legend:
[1] = tested on: GES1; assay: Antiproliferative activity against human GES1 cells measured after 72 hrs by sulforhodamine B assay; format: cell-based; conditions: GES1, 72 h
[2] = AUC(0 to infinity) in BALB/c mouse at 50 mg/kg, ip; format: ADME, organism-based; design: time infinity, route intraperitoneal, dose 50 mg/kg; conditions: in vivo
[3] = Tmax in BALB/c mouse at 50 mg/kg, ip; format: ADME, organism-based; conditions: in vivo
[4] = tested on: HT-29; assay: Antitumor activity against human HT-29 cells xenografted in BALB/c nude mouse assessed as tumor growth inhibition at 100 mg/kg/day, ip measured every 3 days by electronic caliper method; format: functional; conditions: HT-29, ip, 72 h, time 3 day, read-out: TGI
[5] = AUC(0 to t) in BALB/c mouse at 50 mg/kg, ip; format: ADME, organism-based; design: dose 50 mg/kg; conditions: in vivo
[6] = tested on: T84; assay: Synergistic antiproliferative activity against human T84 cells assessed as combination index at 20 uM after 72 hrs in presence of 10 uM AKT inhibitor MK2206 by Chou-Talalay method; format: functional
[7] = tested on: HT-29; assay: Induction of cell cycle arrest in human HT29 cells assessed as accumulation at G0/G1 phase at 20 uM after 24 hrs in presence of 10 uM AKT inhibitor MK2206 by PI staining based flow cytometry analysis; format: functional
[8] = tested on: HT-29; assay: Down regulation of CDK6 expression in human HT29 cells at 20 uM incubated for 24 hrs in presence of 10 uM AKT inhibitor MK2206 by Western blotting analysis; format: functional, cell-based
[9] = tested on: HT-29; assay: Induction of apoptosis in human HT29 cells assessed as inhibition of AKT phosphorylation at 20 uM after 48 hrs by Western blotting analysis; format: functional, cell-based
[10] = tested on: LoVo; assay: Antiproliferative activity against human Lovo cells measured after 72 hrs by sulforhodamine B assay; format: functional, cell-based
[11] = tested on: HT-29; assay: Down regulation of p-RB expression in human HT29 cells at 20 uM incubated for 24 hrs by Western blotting analysis; format: functional, cell-based
[12] = tested on: COLO-678; assay: Additive antiproliferative activity against human COLO-678 cells assessed as combination index at 20 uM after 72 hrs in presence of 5 uM AKT inhibitor MK2206 by Chou-Talalay method; format: functional
[13] = Antiproliferative activity against human GM00637 cells measured after 72 hrs by sulforhodamine B assay; format: cell-based; conditions: GM00637, 72 h
[14] = tested on: HT-29; assay: Downregulation of c-Myc protein expression level in human HT29 cells at 20 uM incubated for 24 hrs by Western blotting analysis; format: functional, cell-based
[15] = tested on: HT-29; assay: Induction of ROS generation in human HT29 cells at 20 uM after 16 hrs in presence of 10 uM AKT inhibitor MK2206 by flow cytometric analysis; format: functional, cell-based
[16] = tested on: SW480; assay: Synergistic antiproliferative activity against human SW480 cells assessed as combination index at 20 uM after 72 hrs in presence of 10 uM AKT inhibitor MK2206 by Chou-Talalay method; format: functional
[17] = tested on: COLO-678; assay: Antiproliferative activity against human COLO 678 cells measured after 72 hrs by sulforhodamine B assay; format: functional, cell-based; conditions: COLO-678, 72 h
[18] = tested on: SW480; assay: Antiproliferative activity against human SW480 cells measured after 72 hrs by sulforhodamine B assay; format: functional, cell-based; conditions: SW480, 72 h
[19] = tested on: HT-29; assay: Upregulation of p21 protein expression in human HT29 cells at 20 uM incubated for 24 hrs by Western blotting analysis; format: functional, cell-based
[20] = tested on: HT-29; assay: Down regulation of cyclin A expression in human HT29 cells at 20 uM incubated for 24 hrs in presence of 10 uM AKT inhibitor MK2206 by Western blotting analysis; format: functional, cell-based
[21] = tested on: HT-29; assay: Induction of cell cycle arrest in human HT29 cells assessed as accumulation at G0/G1 phase at 20 uM after 24 hrs by PI staining based flow cytometry analysis; format: functional
[22] = tested on: COLO-678; assay: Additive antiproliferative activity against human COLO-678 cells assessed as combination index at 10 uM after 72 hrs in presence of 2.5 uM AKT inhibitor MK2206 by Chou-Talalay method; format: functional
[23] = AUC(0 to t) in BALB/c mouse at 10 mg/kg, iv; format: ADME, organism-based; design: dose 10 mg/kg; conditions: in vivo

AUC(0-inf) [2]: 15700 ng·h/mL
Tmax [3]: 45 min
AUC(0-t) [5]: 15600 ng·h/mL
IC50 [10]: 26.4 µM
IC50 [17]: 20.7 µM
IC50 [18]: 22.7 µM
AUC(0-t) [23]: 3060 ng·h/mL
SMILES: CCCCCCCOc1ccc(CCC(CO)(CO)NC(C)=O)c2ccccc12
IC50 [1]: 41.8 µM
inhibition in vivo at 100 mg/kg/day [4]: 25.4%
CI [6]: 0.65
Activity [7]: Active
Activity [8]: Active
Activity [9]: Active
Activity [11]: inactive
CI [12]: 0.89
IC50 [13]: 47.9 µM
Activity [14]: inactive
Activity [15]: Active
CI [16]: 0.62
Activity [19]: inactive
Activity [20]: Active
Activity [21]: inactive
CI [22]: 0.87
